Data as given in patent US20250059205A1, “Heterocyclic Compounds and Methods of Use” (AMGEN INC., priority 2021, published 2025).

How the values were obtained:
[1] = target: His-tagged KRAS G12D protein (Homo sapiens, UniProt P01116, G12D); test: KRAS G12D TR-FRET Assay; type: binding
[2] = target: GDP-bound KRAS protein (aa 1-169), containing both G12D and C118A amino acid substitutions (Homo sapiens, UniProt P01116, C118A/G12D); test: KRAS G12D Coupled Nucleotide Exchange Assay; type: biochemical; details: 2 h compound pre-incubation
Procedure: Following compound pre-incubation, purified SOS protein (aa 564-1049) and GTP (Roche 10106399001) were added to the assay wells and incubated for an additional 30 min. […] The assay plates were then read on a PerkinElmer EnVision Multilabel Reader, using AlphaScreen® technology, and data were analyzed using a 4-parameter logistic model to calculate IC50 values.

[3] = system: Phosphorylation of ERK1/2 in A-427 cells; test: Phospho-ERK1/2 MSD Assay (A-427 cells); type: cell-based; details: Homo sapiens, A-427, 2 h, 2 h treatment, read-out: p-ERK (A427 cells) IC50
Outline: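 ERK1/2 phosphorylation measured by Meso Scale whole-cell lysate assay after A-427 cells were exposed to a titration of compound for 2 h at 37 °C.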

[4] = system: Phosphorylation of ERK1/2 in AsPC-1 cells; test: Phospho-ERK1/2 MSD Assay (AsPC-1 cells); type: cell-based; details: Homo sapiens, ASPC1, 2 h, 2 hours treatment, read-out: p-ERK (AsPC-1 cells) IC50
Outline: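 Read-out: MSD electrochemiluminescent detection of phosphorylated ERK1/2 in whole-cell lysates, fitted to a 4-parameter logistic curve for IC50. Prior to lysis, AsPC-1 cells (25,000 per well) received a 2 h compound dose-response at 37 °C.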

Sequence of His-tagged KRAS G12D protein (P01116 1-188 isoform P01116-2 G12D): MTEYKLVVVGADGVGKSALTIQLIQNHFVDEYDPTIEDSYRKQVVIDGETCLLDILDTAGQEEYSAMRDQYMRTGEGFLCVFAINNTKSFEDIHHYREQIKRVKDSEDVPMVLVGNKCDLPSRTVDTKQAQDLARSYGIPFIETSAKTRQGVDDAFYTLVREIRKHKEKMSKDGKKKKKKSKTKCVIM
Sequence of GDP-bound KRAS protein (aa 1-169), containing both G12D and C118A amino acid substitutions (P01116 1-169 isoform P01116-2 G12D/C118A): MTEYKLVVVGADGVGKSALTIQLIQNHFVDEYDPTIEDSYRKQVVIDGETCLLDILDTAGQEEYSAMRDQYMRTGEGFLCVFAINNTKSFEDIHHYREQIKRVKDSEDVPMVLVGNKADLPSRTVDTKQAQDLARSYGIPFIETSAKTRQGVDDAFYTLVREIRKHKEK

**Q.** Which IC50 [1] does the source give for `Oc1cc(-c2ccc3c(N4C[C@H]5CC[C@@H](C4)N5)nc(OC[C@@]45CCCN4C[C@H](F)C5)nc3c2F)c2c(F)cccc2c1` [Example 141, 4-(4-((1R,5S)-3,8-diazabicyclo[3.2.1]octan-3-yl)-8-fluoro-2-(((2R,7aS)-2-fluorotetrahydro-1H-pyrrolizin-7a(5H)-yl)methoxy)quinazolin-7-yl)-5-fluoronaphthalen-2-ol] here?
**A.** Its IC50 is 2 nM.

**Q.** And the “Avg 2 h Coupled Exchange IC50” value [2]?
**A.** The value was 1 nM.

**Q.** And the IC50 [3]?
**A.** The IC50 was 10 nM.

**Q.** What about the IC50 [4] of the same molecule?
**A.** Its IC50 is 93 nM.

**Q.** What does the source list for `Oc1cc(-c2ccc3c(N4C[C@H]5CC[C@@H](C4)N5)nc(OC[C@@]45CCCN4C[C@H](F)C5)nc3c2F)c2c(F)c(F)ccc2c1` [Example 142, 4-(4-((1R,5S)-3,8-diazabicyclo[3.2.1]octan-3-yl)-8-fluoro-2-(((2R,7aS)-2-fluorotetrahydro-1H-pyrrolizin-7a(5H)-yl)methoxy)quinazolin-7-yl)-5,6-difluoronaphthalen-2-ol]?
**A.** IC50 [1]: 2 nM; Avg 2 h Coupled Exchange IC50 [2]: 2 nM; IC50 [3]: 6 nM; IC50 [4]: 19 nM

**Q.** `Oc1cc(Cl)c(C2CC2)c(-c2c(F)cc3c(N4C[C@H]5CC[C@@H](C4)N5)nc(OC[C@@]45CCCN4C[C@H](F)C5)nc3c2F)c1` [Example 144, 3-(4-((1R,5S)-3,8-diazabicyclo[3.2.1]octan-3-yl)-6,8-difluoro-2-(((2R,7aS)-2-fluorotetrahydro-1H-pyrrolizin-7a(5H)-yl)methoxy)quinazolin-7-yl)-5-chloro-4-cyclopropylphenol] was tested. Which IC50 [1] did it give?
**A.** The IC50 was 3 nM.

**Q.** What about the “Avg 2 h Coupled Exchange IC50” value [2] of the same molecule?
**A.** The value was 3 nM.

**Q.** What about the IC50 [3] of the same molecule?
**A.** Its IC50 is 23 nM.

**Q.** And the IC50 [4]?
**A.** The IC50 was 41 nM.

**Q.** How did the IC50 [1] turn out when `Oc1cc(Cl)c(C2CC2)c(-c2ccc3c(N4C[C@H]5CC[C@@H](C4)N5)nc(OC[C@@]45CCCN4C[C@H](F)C5)nc3c2F)c1` [Example 145, 3-(4-((1R,5S)-3,8-diazabicyclo[3.2.1]octan-3-yl)-8-fluoro-2-(((2R,7aS)-2-fluorotetrahydro-1H-pyrrolizin-7a(5H)-yl)methoxy)quinazolin-7-yl)-5-chloro-4-cyclopropylphenol] was run?
**A.** Its IC50 is 2 nM.

**Q.** What about the “Avg 2 h Coupled Exchange IC50” value [2] of the same molecule?
**A.** The value was 3 nM.

**Q.** What about the IC50 [3] of the same molecule?
**A.** Its IC50 is 11 nM.

**Q.** And the IC50 [4]?
**A.** Its IC50 is 39 nM.

**Q.** What does the source list for `CCc1c(F)ccc2cc(O)cc(-c3ccc4c(N5[C@@H]6CC[C@H]5CNC6)nc(OC[C@@]56CCCN5C[C@H](F)C6)nc4c3F)c12` [Example 146, 4-(4-((1R,5S)-3,8-diazabicyclo[3.2.1]octan-8-yl)-8-fluoro-2-(((2R,7aS)-2-fluorotetrahydro-1H-pyrrolizin-7a(5H)-yl)methoxy)quinazolin-7-yl)-5-ethyl-6-fluoronaphthalen-2-ol]?
**A.** IC50 [1]: 1 nM; Avg 2 h Coupled Exchange IC50 [2]: 3 nM; IC50 [3]: 83 nM; IC50 [4]: 129 nM

**Q.** For `CCc1cccc2cc(O)cc(-c3c(F)cc4c(N5C[C@H]6CC[C@@H](C5)N6)nc(OC[C@@]56CCCN5C[C@H](F)C6)nc4c3F)c12` [Example 147, 4-(4-((1R,5S)-3,8-diazabicyclo[3.2.1]octan-3-yl)-6,8-difluoro-2-(((2R,7aS)-2-fluorotetrahydro-1H-pyrrolizin-7a(5H)-yl)methoxy)quinazolin-7-yl)-5-ethylnaphthalen-2-ol], which IC50 [1] is on record?
**A.** Its IC50 is 3 nM.

**Q.** What about the “Avg 2 h Coupled Exchange IC50” value [2] of the same molecule?
**A.** Its value is 2 nM.

**Q.** What about the IC50 [3] of the same molecule?
**A.** Its IC50 is 3 nM.

**Q.** And the IC50 [4]?
**A.** Its IC50 is 25 nM.

**Q.** How did the IC50 [1] turn out when `Oc1cc(-c2c(F)cc3c(N4[C@@H]5CC[C@H]4CNC5)nc(OC[C@@]45CCCN4C[C@H](F)C5)nc3c2F)c2c(F)c(F)ccc2c1` [Example 148, 4-(4-((1R,5S)-3,8-diazabicyclo[3.2.1]octan-8-yl)-6,8-difluoro-2-(((2R,7aS)-2-fluorotetrahydro-1H-pyrrolizin-7a(5H)-yl)methoxy)quinazolin-7-yl)-5,6-difluoronaphthalen-2-ol] was run?
**A.** The IC50 was 2 nM.

**Q.** What about the “Avg 2 h Coupled Exchange IC50” value [2] of the same molecule?
**A.** Its value is 2 nM.

**Q.** And the IC50 [3]?
**A.** The IC50 was 83 nM.

**Q.** What about the IC50 [4] of the same molecule?
**A.** Its IC50 is 143 nM.
